Results: patent US6063776A, “Sitostanol formulation with emulsifier to reduce cholesterol absorption and method for preparing and use of same” (Washington University, priority 1999, dated 2000)
Like-named read-outs stand apart in the source and are kept apart here.

Tests used:
cholesterol absorption = details: cited from earlier work
serum cholesterol = details: cited from earlier work
[1] = Solubility of sitostanol mixtures dried from chloroform in artificial bile (Example 1); type: physicochemical; details: artificial bile (8 mM sodium taurocholate, 5 mM soy lecithin, pH 7.4), 37° C, 30 min; mixture dried from chloroform
Procedure: An aliquot, containing 1.2 μMol of sitostanol, was transferred to an evacuation tube and the solvent was removed under reduced pressure (<50 mtorr). The experiment was initiated by adding 0.5 mL of artificial bile (8 mM sodium taurocholate containing 5 mM soy lecithin and 0.15 mM NaCl, pH 7.4) followed by rotation at 8 rev/min for 30 min at 37° C. The tube was then centrifuged for 1 minute at 17,000×g to precipitate any solid material, the supernatant was removed and added to scintillation fluid for measurement of radioactivity, and the percent of radioactivity in the artificial bile supernatant was calculated.

[2] = tested on: hypocholesterolemic activity; details: rat, in vivo; cited from earlier work
[3] = in vivo; cited from earlier work
[4] = Solubility in artificial bile with variable amounts of lecithin, repeated extraction (Example 3); type: physicochemical; details: tenfold excess of lecithin
Procedure: Sitostanol, tracer amount of [^3 H]sitostanol, and other compounds that are found in the gut or that are commonly used as food additives were mixed together in chloroform solution at a fixed mole ratio. An aliquot, containing 1.2 μMol of sitostanol, was transferred to an evacuation tube and the solvent was removed under reduced pressure (<50 mtorr). The experiment was initiated by adding 0.5 mL of artificial bile (8 mM sodium taurocholate containing 5 mM soy lecithin and […], pH 7.4) followed by rotation at 8 rev/min for 30 min at 37° C. The tube was then centrifuged for 1 minute at 17,000×g to precipitate any solid material, the supernatant was removed and added to scintillation fluid for measurement of radioactivity, and the percent of radioactivity in the artificial bile supernatant was calculated. Table I below summarizes the solubility of sitostanol mixtures in the presence of artificial bile salt.
The effectiveness of variable amounts of lecithin to solubilize sitostanol was studied as in Example #1, except that after rotation at 37° for 30 min residual sedimenting sitostanol was re-extracted twice by vortexing with 0.5 ml additional artificial bile and recentrifuging. The following results were obtained:
When [^3 H]phosphatidylcholine was added as a tracer instead of [^3 H]sitostanol, the amount of lecithin solubilized was 93.3%. […]

[5] = Solubility in artificial bile of sonicated, lyophilized sitostanol mixtures (Example 6); type: physicochemical; details: compared with lecithin and lysolecithin / SSL
Procedure: Solubility in artificial bile was determined by adding 8 mM sodium taurocholate 5 mM PC 0.15 M NaCl 15 mM sodium phosphate pH 7.4 (artificial bile), rotating for 30 min. at 37° and centrifuging at 17,000×g for 1 min. The pellet was washed once and the combined sups and pellet were counted separately.

neomycin
effect on cholesterol absorption (cholesterol absorption; given chronically (cholestyramine) or orally (neomycin)): reduces cholesterol absorption effectively

CC[C@H](CC[C@@H](C)[C@H]1CC[C@H]2[C@@H]3CC=C4C[C@@H](O)CC[C@]4(C)[C@H]3CC[C@]12C)C(C)C [sitosterol]
decrease of serum cholesterol levels (serum cholesterol; 3-9 g/day powdered sitosterol): 12%
reduction of serum cholesterol (serum cholesterol; 5-18 g sitosterol/day): 16-20%

CC[C@H](CC[C@@H](C)[C@H]1CC[C@H]2[C@@H]3CC[C@H]4C[C@@H](O)CC[C@]4(C)[C@H]3CC[C@]12C)C(C)C [Sitostanol, sitostanol]
Soluble Sterol [1]: 2.3%
potency relative to other phytosterols [2]: more potent than other phytosterols
reduction of serum cholesterol (serum cholesterol; 1.5 g/day, severe hypercholesterolemia): 15%
effect in moderate hypercholesterolemia (serum cholesterol; 3 g/day): no effect
absorption [3]: non-absorbable
sitostanol remaining insoluble [4]: 32%

CCCCCCCCCCCCCCCCCC(=O)OC(C)C(=O)OC(C)C(=O)[O-].[Na+] (centres unmarked) [SSL, Sodium stearoyl-2-lactylate]
effectiveness in solubilizing sitostanol [5]: as effective as lecithin and lysolecithin

sitostanol ester
less effective at reducing cholesterol absorption (cholesterol absorption; ester dissolved in dietary fat compared to the unesterified sterol, humans): 21%
